Laboratory results from patent publication US5571799A, “(2'-5') oligoadenylate analogues useful as inhibitors of host-v5.-graft response” (Basco, Ltd., priority 1994, dated 1996).
“Also recorded” adds a separate entry of the source.

Experiments:
T-killers and T-helpers = test: Immunosuppressive activity in vivo in monkeys; set-up: species or system Macaque Rh. monkeys
Protocol: (§1) The experiments were performed on 4 year-old Macaque Rh. monkeys. The levels of the principal subpopulations of T-lymphocytes, IgA, IgG, IgM and the amount of α- and γ-interferon and interleukin II after administration (2'-5')olygoadenylate and its analogies at the concentration of 50 and 25 μg/kg of the body weight was investigated.
(§2) FLOW CYTOFLUOROGRAFIC ANALYSIS OF LYMPHOCYTE SUBSETS
(§3) Blood samples (100 μl of whole blood) were placed into a 12×17 tube. To these cells 20 μl of purified monoclonal antibodies were added with specificity for human cytotoxic/suppressor cells anti-Leu-2a (CD8), human helper/inducer anti-Leu-3a (CD4) and FITC conjugated monoclonal antibodies with specificity for natural killer cells-anti-Leu11c (CD16) (Becton Dickinson, San Jose). After 30 minutes incubation on ice, the cells were washed once and 20 μl of goat-antimouse chain phycoerythrin (Sigma P1286) conjugate were added to the tube with anti-Leu-2a and anti-Leu-3a monoclonal antibodies.
(§4) After erythrocyte lysing with FACS lysing solution (Becton Dickinson, San Jose) the cells were analyzed on FACScan flow cytometer (Becton Dickinson, San Jose) with scatter gate set on lymphocyte fraction.

T-killers = test: Immune system of monkeys: T-killers, flow cytofluorografic analysis; format: in vivo, Macaque Rh. monkeys
Protocol: as §1, §2, §3, §4

[1] = test system: natural compound 2'-5'A3 in blood plasma and blood cells; test: Duration of activity in the blood of rabbits (radioimmune and fluoroimmune detection); format: in vivo; conditions: 10 min after one injection, 10 μg/kg, rabbit
From the text: Duration of (2'-5')A2 Ar-epoxy Activity in the Blood of Rabbits
In order to study (2'-5')A2 Ar-epoxy pharmacodynamics, the radioimmune and fluoroimmune techniques were developed for its detection in tissue.

transplanted kidney = test: Kidney allotransplantation using chinchilla rabbits; format: in vivo
Protocol: Kidney allotransplantations were performed using chinchilla rabbits of the same sex, weighing 5.0-6.5 kg. In the series of 10 rabbits, allogenic kidneys were transplanted on the neck vessels, rabbit ureter was taken outside for performing ureterocutaneostoma. Anastomosis was performed on the donor kidney vessels according to the "end-into-end" pattern, with the external carotid artery and the jugular vein joined by means of their preliminary cannulation and fixation by the cannulae with the recipient vessels.
The recipient rabbits had combined anesthesia: intravenous introduction of hexenal at a rate of 10 mg per 1.0 kg. body weight was supplemented by local anesthesia with 0.25-0.5% novocaine solution up to 15.0 ml. An intact rabbit served as a kidney donor, whose kidneys were exposed by means of transperitoneal access and perfused with 500 ml of Eurocollins solution, in situ. Simultaneously with the kidney perfusion, kidney vessels and ureters were utilized, the latter being cut at the level of iliac vessels. Having performed perfusion without extracting a kidney from the donor, kidney vessels were cannulated from the aorta and vena cava, the canulae were fixed with separate ligatures and the vessels were released. After this, the kidney was extracted.
The organs were preserved at the temperature of melting ice. Then we proceeded directly to kidney transplantation. The preservation lasted for about 2.5-3.0 hours and thermal ischemia (secondary) duration was 30-40 minutes.
Immunosuppression was performed by IV injection of (2'-5')A2 Ar-epoxy at a dose of 5 μg per 1.0 kg body weight at 0.1 ml of the physiologic solution daily until the conclusion of the experiment. During the first two weeks of the post-operative period, blood was taken for immunological analysis; BTR with PHA and Concanavalin A were tested.
The results of the experiments were evaluated clinically, by the presence or absence of urination from the ureterocutaneostoma and by the behavior of the experimental animals.

IgG, IgA, IgM = test: Immune system of monkeys: serum immunoglobulins by radial immunodiffusion; format: in vivo, Macaque Rh. monkeys
Protocol: as §1, with “Immunosuppressive activity of the prototype 2'-5'A3 and two analogues (2'-5')A2 Ar-epoxy and (2'-5')A2 A^l-epoxy were investigated in monkeys. The experiments” for “The experiments”
IMMUNOGLOBULIN DETERMINATION
Serum levels of IgG, IgA, IgM were determined by radial immunodiffusion using antisera against human immunoglobulin A, M, G. The amount of interferon and interleukine-II were determined by the method of Lopez-Botet M. et al., 1982.

[2] = single IV 25 μg/kg, day 0 (baseline)
[3] = single IV 50 μg/kg, day 0 (baseline)

## Adenylyl (2'-5')adenylyl (2'-5')-9-(2,3-anhydro-β-D-ribofuranosyl) adenine disodium salt [(2'-5')A2 Ar-epoxy]
T-killers and T-helpers; monkeys, IV, disodium salt
  immunosuppressive activity, in words: suppresses significantly the number of T-lymphocytes in blood after only 48 hours; also recorded: strong immunosuppressive activity specifically against T-killers and T-helpers; also recorded: suppressed more actively the number of T-killer and T-helpers
T-killers and T-helpers; single IV injection (Table 10 experiment, 500 μg/kg)
  increase of the quantity of the subpopulation of T-helpers and T-killers: about 50%
T-killers and T-helpers; single IV injection, 48 hours, monkeys
  suppression of the number of T-killers and T-helpers: 50%
T-killers; [2]
  T-killers: 9.9%
T-killers; single IV 25 μg/kg, day 1
  T-killers: 12%
T-killers; single IV 25 μg/kg, day 2
  T-killers: 8%
T-killers; single IV 25 μg/kg, day 4
  T-killers: 4%
T-killers; single IV 25 μg/kg, day 8
  T-killers: 4%
T-killers; single IV 25 μg/kg, day 12
  T-killers: 4%
T-killers; single IV 25 μg/kg, day 21
  T-killers: 6.4%
T-killers; [3]
  T-killers: 12%
T-killers; single IV 50 μg/kg, day 1
  T-killers: 9%
T-killers; single IV 50 μg/kg, day 2
  T-killers: 7%
T-killers; single IV 50 μg/kg, day 4
  T-killers: 1.5%
T-killers; single IV 50 μg/kg, day 8
  T-killers: 4.4%
T-killers; single IV 50 μg/kg, day 12
  T-killers: 9%
T-killers; single IV 50 μg/kg, day 21
  T-killers: 19.3%
[1]
  decrease of the level of natural compounds in blood plasma: 10 fold
  increase of concentration of natural compounds in blood cells: 10 fold
Transplanted kidney; 10 rabbits, 5 μg/kg daily IV
  animals with positive results (graft function): four
Transplanted kidney; 10 rabbits, probably vesicular thrombosis
  rabbits with no graft function in the early postoperative period: four
Transplanted kidney; another rabbit
  time to death after nephrectomy: ≤ 48 h
Transplanted kidney; fatal
  rabbits with generalized viral infection of the respiratory tract: 2 rabbits
Transplanted kidney; first group, four animals, 5 μg/kg daily IV
  duration of function of the grafted kidney: at least 2 months
Transplanted kidney; fourth group, single rabbit
  death after transplantation (wound suppuration, sepsis): death within the first week after transplantation
Transplanted kidney; one rabbit, 1 month after operation
  graft function after ablation of contralateral kidney, in words: the grafted kidney continued functioning
Transplanted kidney; rabbits, IV 5 μg/kg (summary)
  period of normal functioning of the transplanted kidney: 3 months
IgG, IgA, IgM; [2]
  IgA: 2.8 g/L
  IgG: 7.5 g/L
  IgM: 0.5 g/L
IgG, IgA, IgM; single IV 25 μg/kg, day 1
  IgA: 2.0 g/L
  IgG: 7.4 g/L
  IgM: 0.6 g/L
IgG, IgA, IgM; single IV 25 μg/kg, day 2
  IgA: 1.1 g/L
  IgG: 5.2 g/L
  IgM: 1.0 g/L
IgG, IgA, IgM; single IV 25 μg/kg, day 8
  IgA: 0.53 g/L
  IgG: 14.5 g/L
  IgM: 1.41 g/L
IgG, IgA, IgM; single IV 25 μg/kg, day 21
  IgA: 0.38 g/L
  IgG: 14.48 g/L
  IgM: 1.2 g/L
IgG, IgA, IgM; [3]
  IgA: 2.8 g/L
  IgG: 9.6 g/L
  IgM: 0.6 g/L
IgG, IgA, IgM; single IV 50 μg/kg, day 1
  IgA: 2.7 g/L
  IgG: 7.8 g/L
  IgM: 0.5 g/L
IgG, IgA, IgM; single IV 50 μg/kg, day 2
  IgA: 0.8 g/L
  IgG: 15.0 g/L
  IgM: 1.1 g/L
IgG, IgA, IgM; single IV 50 μg/kg, day 8
  IgA: 0.9 g/L
  IgG: 14.8 g/L
  IgM: 0.9 g/L
IgG, IgA, IgM; single IV 50 μg/kg, day 21
  IgA: 0.38 g/L
  IgG: 13.2 g/L
  IgM: 0.78 g/L
